Experimental data published in US7230002B2, “Dipeptidyl peptidase IV inhibitors; processes for their preparation and compositions thereof” (Glenmark Pharmaceuticals Ltd., priority 2004, dated 2007).
Counter-ions that a name gives are not always drawn.

The compounds below were run against T1, human recombinant Dipeptidyl peptidase IV enzyme (Homo sapiens, UniProt P27487) (assay: In-vitro DPP-IV assay (cleavage of Gly-Pro-AMC)). Conditions: at 300 nM, n = 3, read-out: DPP-IV inhibition, percent inhibition at 300 nM.
T1 construct: purchased R & D Systems
Assay type: biochemical
Procedure: Protocol for In-Vitro DPP-IV Assay
DPPIV activity was determined by the cleavage rate of 7-amino-4-methyl coumarin (AMC) from synthetic substrate Glycyl-Prolyl-AMC. In brief, the assay was conducted by adding 10 ng of human recombinant Dipeptidyl peptidase IV enzyme (DPPIV, available commercially from R & D Systems) in 50 μl of the assay buffer (25 mM Tris, pH 7.4, 140 mM NaCl, 10 mM KCl, 1% BSA) to 96 well black flat bottom microtiter plates. The reaction was initiated by adding 50 μl of 100 μM substrate Gly-Pro-AMC. The incubation was carried out in the kinetic mode at 30° C. for 30 minutes. Fluorescence was measured using Fluorostar at excitation filter of 380 nm and emission filter of 460 nm). Test compounds and solvent controls were added as 1 μl additions. A standard curve of free amino methyl coumarin (AMC) was generated using 0–100 μM AMC in the assay buffer. The curve generated, which was linear was used for the interpolation of catalytic activity.
Test compounds dissolved in DMSO at 5–6 concentrations were tested in duplicate along with the solvent control and blank samples. Percent inhibition was calculated at each concentration with respect to the solvent control sample (no test compound added). IC50 values were calculated from 3 experiments using the prism software.

T1 sequence (P27487 whole entry): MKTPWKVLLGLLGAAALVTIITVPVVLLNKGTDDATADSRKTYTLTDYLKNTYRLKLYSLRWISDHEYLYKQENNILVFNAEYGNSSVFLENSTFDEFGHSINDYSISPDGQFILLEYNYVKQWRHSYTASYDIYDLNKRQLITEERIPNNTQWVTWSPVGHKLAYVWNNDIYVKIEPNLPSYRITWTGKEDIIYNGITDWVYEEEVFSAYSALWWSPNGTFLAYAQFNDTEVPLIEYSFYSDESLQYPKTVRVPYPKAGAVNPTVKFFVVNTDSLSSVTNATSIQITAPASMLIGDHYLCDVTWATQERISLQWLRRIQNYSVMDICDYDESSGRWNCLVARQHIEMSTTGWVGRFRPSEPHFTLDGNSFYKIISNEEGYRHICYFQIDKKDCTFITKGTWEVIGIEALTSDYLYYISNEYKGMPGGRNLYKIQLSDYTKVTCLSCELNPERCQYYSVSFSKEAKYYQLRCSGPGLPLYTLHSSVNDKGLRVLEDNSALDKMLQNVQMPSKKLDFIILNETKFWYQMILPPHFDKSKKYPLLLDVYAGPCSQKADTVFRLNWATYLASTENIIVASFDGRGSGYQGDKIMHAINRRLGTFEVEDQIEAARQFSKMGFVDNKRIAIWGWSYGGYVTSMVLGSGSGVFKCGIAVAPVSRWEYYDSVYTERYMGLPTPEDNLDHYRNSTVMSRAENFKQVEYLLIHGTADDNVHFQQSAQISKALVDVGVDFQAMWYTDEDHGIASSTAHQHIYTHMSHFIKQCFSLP

inhibition at 0.3 µM	SMILES
6%	N#Cc1ccc(NCC2CCC(NCC(=O)N3CCCC3)C2)nc1 (racemic) [Example-1, cis-(±)-6-(3-[2-(1-Pyrrolidinyl)-2-oxoethylamino]cyclopentylmethylamino)nicotino-nitrile]
17%	N#Cc1ccc(NCC2CCC(NCC(=O)N3CCSC3)C2)nc1 (stereo not drawn) [Example-2]

Same assay, conditions: n = 3, substrate Gly-Pro-AMC, 30° C., 30 minutes, read-out: DPP-IV inhibition IC50

IC50	SMILES
6.29 nM	N#C[C@@H]1CCCN1C(=O)CNC1CCC(CNc2ccc([N+](=O)[O-])cc2F)C1 (mixture of isomers) [Example-24, (2S)-1-{2-[(3SR,1RS)-3-(2-Fluoro-4-nitroanilinomethyl)cyclopentylamino]acetyl}-pyrrolidine-2-carbonitrile]
17.4 nM	N#C[C@@H]1CCCN1C(=O)CNC1CCC(CNc2cc(F)c(F)cc2F)C1 (mixture of isomers) [Example-27, (2S)-1-{2-[(3SR,1RS)-3-(2,4,5-Trifluoroanilinomethyl)cyclopentylamino]acetyl}-pyrrolidine-2-carbonitrile]
22.3 nM	N#C[C@@H]1CCCN1C(=O)CNC1CCC(CSc2ccccc2)C1 (mixture of isomers) [Example-28, (2S)-1-{2-[(3SR,1RS)-3-Phenylsulfanylmethylcyclopentylamino]acetyl}-pyrrolidine-2-carbonitrile]
9.42 nM	N#Cc1ccc(SCC2CCC(NCC(=O)N3CCC[C@H]3C#N)C2)nc1 (mixture of isomers) [Example-38, 6-((1SR,3RS)-3-{2-[(2S)-2-Cyanopyrrolidin-1-yl]-2-oxoethylamino}cyclopentyl-methylsulfanyl)nicotinonitrile]
78.7 nM	N#Cc1ccc(S(=O)(=O)CC2CCC(NCC(=O)N3CCC[C@H]3C#N)C2)nc1 (mixture of isomers) [Example-40, 6-((1SR,3RS)-3-{2-[(2S)-2-Cyanopyrrolidin-1-yl)-2-oxoethylamino}cyclopentyl-methylsulfonyl)nicotinonitrile]
10 nM	N#C[C@@H]1CCCN1C(=O)CNC1CCC(CS(=O)(=O)c2ccccc2)C1 (mixture of isomers) [Example-29]
11.1 nM	N#Cc1ccc(SCC2CCC(NCC(=O)N3CCC[C@H]3C#N)C2)nc1 (mixture of isomers) [Example-39, 6-((1SR,3RS)-3-{2-[(2S)-2-Cyanopyrrolidin-1-yl]-2-oxoethylamino}cyclopentyl-methylsulfanyl)nictinonitrile maleate]
35.9 nM	N#C[C@@H]1CCCN1C(=O)CNC1CCC(COc2ccc([N+](=O)[O-])cc2)C1 (mixture of isomers) [Example-43, (2S)-1-{2-[(3SR,1RS)-3-(4-Nitrophenoxymethyl)cyclopentylamino]acetyl}-pyrro-lidine-2-carbonitrile]
8.59 nM	N#C[C@@H]1CCCN1C(=O)CN[C@@H]1CC[C@H](CNc2ccc([N+](=O)[O-])cc2F)C1 [Example-25, (2S)-1-{2-[(1R,3S)-3-(2-Fluoro-4-nitroanilinmethyl)cyclopentylamino]acetyl}-pyrrolidine-2-carbonitrile]
5.16 nM	N#C[C@@H]1C[C@H](F)CN1C(=O)CN[C@@H]1CC[C@H](CNc2ccc([N+](=O)[O-])cc2F)C1 [Example-26]
63.4 nM	N#C[C@@H]1CCCN1C(=O)CN[C@@H]1CC[C@H](CSc2ccccc2)C1 [Example-30, (2S)-1-{2-[(3S,1R)-3-Phenylsulfanylmethylcycopentylamino]acetytl}-pyrrolidine-2-carbonitrile]

More lines, now with the values behind:

SMILES	IC50
N#Cc1ccc(NCC2CCC(NCC(=O)N3C[C@@H](F)C[C@H]3C#N)C2)nc1 (mixture of isomers) [Example-14, 6-((1SR,3RS)-3-{2-[(2S,4S)-2-Cyano-4-fluoropyrrolidin-1-yl]-2-oxoethylamino}-cyclopentylmethylamino)nicotinonitrile]	3.58 nM
N#C[C@@H]1CCCN1C(=O)CNC1CCC(CNc2ncccn2)C1 (mixture of isomers) [Example-18, (2S)-1-{2-[(3SR,1RS)-3-(2-Pyrimidinylaminomethyl)cyclopentylamino)acetyl}-pyrrolidine-2-carbonitrile]	9.8 nM
N#C[C@@H]1CCCN1C(=O)CNC1CCC(CNc2ncccn2)C1 (mixture of isomers) [Example-19, (2S)-1-{2-[(3SR,1RS)-3-(2-Pyrimidinylaminomethyl)cyclopentylamino)acetyl}-pyrrolidine-2-carbonitrile dihydrochloride]	20 nM
N#C[C@@H]1CCCN1C(=O)CNC1CCC(CNc2ccc([N+](=O)[O-])c(Cl)c2)C1 (mixture of isomers) [Example-23, (2S)-1-{2-[(3SR,1RS)-3-(3-Chloro-4-nitroanilinomethyl)cyclopentylamino]acetyl}-pyrrolidine-2-carbonitrile]	14.6 nM
N#Cc1ccc(NCC2CCC(NCC(=O)N3CCC[C@H]3C#N)C2)nc1 (mixture of isomers) [Example-3, 6-((1SR,3RS)-3-{2-[(2S)-2-Cyanopyrrolidin-1-yl]-2-oxoethylamino}cyclopentyl-methylamino)nicotinonitrile]	6.29 nM
N#Cc1ccc(NCC2CCC(NCC(=O)N3CCC[C@H]3C#N)C2)nc1 (mixture of isomers) [Example-4, 6-((1SR,3RS)-3-{2-[(2S)-2-Cyanopyrrolidin-1-yl]-2-oxoethylamino}cyclopentyl-methylamino)nicotinonitrile dihydrochloride]	10 nM
N#Cc1ccc(NCC2CCC(NCC(=O)N3CCC[C@H]3C#N)C2)nc1 (mixture of isomers) [Example-5, 6-((1SR,3RS)-3-{2-[(2S)-2-Cyanopyrrolidin-1-yl]-2-oxoethylamino}cyclopentyl-methylamino)nicotinonitrile maleate]	10.3 nM
N#Cc1ccc(NCC2CCC(NCC(=O)N3CCC[C@H]3C#N)C2)nc1 (mixture of isomers) [Example-7, 6-((1SR,3RS)-3-{2-[(2S)-2-Cyanopyrrolidin-1-yl]-2-oxoethylamino}cyclopentyl-methylamino)nicotinonitrile citrate]	11.7 nM
N#Cc1ccc(NCC2C=CC(NCC(=O)N3CCC[C@H]3C#N)C2)nc1 (mixture of isomers) [Example-12]	11.2 nM
N#Cc1ccc(NC[C@@H]2CC[C@@H](NCC(=O)N3CCC[C@H]3C#N)C2)nc1 (racemic) [Example-13, 6-((1RS,3RS)-3-{2-[(2S)-2-Cyanopyrrolidin-1-yl]-2-oxoethylamino}cyclopentyl-methylamino)nicotinonitrile]	12.1 nM
N#Cc1ccc(NCC2CCC(NCC(=O)N3CSC[C@H]3C#N)C2)nc1 (mixture of isomers) [Example-16, (4S)-3-{2-(1SR,3RS)-3-[(5-Cyano-2-pyridylaminomethyl)cyclopentylamino]acetyl}-1,3-thiazolane-4-carbonitrile dihydrochloride]	2.76 nM
N#Cc1ccc(NC[C@@H]2CC[C@@H](NCC(=O)N3CSC[C@H]3C#N)C2)nc1 (racemic) [Example-17, (4S)-3-{2-(1RS,3RS)-3-[(5-Cyano-2-pyridylaminomethyl)cyclopentylamino]acetyl}-1,3-thiazolane-4-carbonitrile dihydrochloride]	2.93 nM
N#Cc1ccc(NC[C@H]2CC[C@@H](NCC(=O)N3CCC[C@H]3C#N)C2)nc1 [Example-8, 6-((1S,3R)-3-{2-[(2S)-2-Cyanopyrrolidin-1-yl]-2-oxoethylamino}cyclopentylmethyl-amino)nicotinonitrile]	10.6 nM
N#Cc1ccc(NC[C@H]2CC[C@@H](NCC(=O)N3CCC[C@H]3C#N)C2)nc1 [Example-9, 6-((1S,3R)-3-{2-[(2S)-2-Cyanopyrrolidin-1-yl]-2-oxoethylamino}cyclopentylmethyl-amino)nicotinonitrile dihydrochloride]	6.27 nM
N#Cc1ccc(NC[C@@H]2CC[C@H](NCC(=O)N3CCC[C@H]3C#N)C2)nc1 [Example-10, 6-((1R,3S)-3-{2-[(2S)-2-Cyanopyrrolidin-1-yl]-2-oxoethylamino}cyclopentylmethyl-amino)nicotinonitrile]	7.81 nM
N#Cc1ccc(NC[C@@H]2CC[C@H](NCC(=O)N3CCC[C@H]3C#N)C2)nc1 [Example-11, 6-((1R,3S)-3-{2-[(2S)-2-Cyanopyrrolidin-1-yl]-2-oxoethylamino}cyclopentylmethyl-amino)nicotinonitrile dihydrochloride]	13.9 nM
N#Cc1ccc(NC[C@H]2CC[C@@H](NCC(=O)N3C[C@@H](F)C[C@H]3C#N)C2)nc1 [Example-15, 6-((1S,3R)-3-{2-[(2S,4S)-2-Cyano-4-fluoropyrrolidin-1-yl]-2-oxoethylamino}cyclo-pentylmethylamino)nicotinonitrile]	3.17 nM
N#C[C@@H]1CCCN1C(=O)CN[C@@H]1CC[C@H](CNc2ncccn2)C1 [Example-20, (2S)-1-{2-[(3S,1R)-3-(2-Pyrimidinylaminomethyl)cyclopentylamino)acetyl}-pyrrolidine-2-carbonitrile]	41.3 nM
N#C[C@@H]1CCCN1C(=O)CN[C@H]1CC[C@@H](CNc2ncccn2)C1 [Example-21]	6.74 nM
N#C[C@@H]1CCCN1C(=O)CN[C@@H]1CC[C@H](CNc2nnnn2-c2ccccc2)C1 [Example-22, (2S)-1-{2-[(3S,1R)-3-(1-Phenyl-1H-1,2,3,4-tetraazol-5-ylaminomethyl)cyclopentyl-amino]acetyl}-pyrrolidine-2-carbonitrile]	10.4 nM
